From patent US12221453B2, “Substituted pyrazolo[5′,1′:2,3]pyrimido[5,4-b][1,4]oxazines as TYK2 inhibitors” (TAKEDA PHARMACEUTICAL COMPANY LIMITED, priority 2018, dated 2025) come the findings set out here.

The test system of the experiment is IL-12 induced STAT4 phosphorylation mediated by TYK2/JAK2. Briefly: IL-12 induced pSTAT4 in human PBMC. The format is cell-based. Particulars: 1 hr compound, 1.7 ng/mL IL-12 for 30 minutes. The procedure: Human PBMC were isolated from buffy coat and are stored frozen for assays as needed. […] 15 μL of compound or DMSO was added to the well at the desired concentrations and incubated at 1 hr at 37° C. 15 μL of stimulus (final concentration of 1.7 ng/mL IL-12) was added for 30 minutes prior to pSTAT4 and total STAT4 analysis using cell lysates prepared and analyzed by MSD reagents as per manufacturer protocol. The final DMSO concentration of compound in the assay was 0.1%. The IL-12 induced pSTAT4 assay evaluates the inhibition of IL-12 induced STAT4 phosphorlyation mediated by TYK2/JAK2 ([…] complex).

As for `CNc1cc(Nc2cccn([C@@H]3CCC[C@@H](OC)C3)c2=O)nc2c(C(=O)NC3CC[C@@H]3F)cnn12` (some centres unmarked) [Compound I-227], the half-inhibitory concentration (IC50) (commonly the concentration that inhibits the measured activity by half) was less than 0.1 µM. The result for `CNc1cc(Nc2cccn([C@@H]3CCC[C@@H](OC)C3)c2=O)nc2c(C(=O)N[C@H]3CC[C@@H]3F)cnn12` [Compound I-228] reads less than 0.1 µM.

Molecule `CNc1cc(Nc2cccn([C@H]3CCC[C@H](OC)C3)c2=O)nc2c(C(=O)NC3CC[C@@H]3F)cnn12` (some centres unmarked) [Compound I-230] gave an IC50 of less than 0.1 µM. In the case of `CNc1cc(Nc2cccn([C@H]3CCC[C@H](OC)C3)c2=O)nc2c(C(=O)N[C@H]3CC[C@@H]3F)cnn12` [Compound I-231] it was less than 0.1 µM; in that of `CNc1cc(Nc2cccn([C@@H]3CCOC[C@@H]3OC)c2=O)nc2c(C(=O)N[C@@H]3CC[C@@H]3F)cnn12` [Compound I-235], less than 0.1 µM. In the case of `CNc1cc(Nc2cccn(C3CCN(CCF)CC3)c2=O)nc2c(C(=O)NC3CC[C@@H]3F)cnn12` (some centres unmarked) [Compound I-236] it was less than 0.1 µM; in that of `CNc1cc(Nc2cccn(C3CCN(CCF)CC3)c2=O)nc2c(C(=O)N[C@H]3CC[C@@H]3F)cnn12` [Compound I-237], less than 0.1 µM. As to `CNc1cc(Nc2cccn([C@H]3CC[C@@H]3OC)c2=O)nc2c(C(=O)NC3CC[C@H]3O)cnn12` (some centres unmarked) [Compound I-239], the IC50 is less than 0.1 µM. The result for `CNc1cc(Nc2cccn([C@H]3CC[C@@H]3OC)c2=O)nc2c(C(=O)N[C@H]3CC[C@H]3O)cnn12` [Compound I-240] reads less than 0.1 µM; that for `CNc1cc(Nc2cccn([C@@H]3CC[C@H]3OC)c2=O)nc2c(C(=O)N[C@H]3CC[C@H]3O)cnn12` [Compound I-243], less than 0.1 µM; that for `CNc1cc(Nc2cccn([C@H]3C[C@@H](OC)C3)c2=O)nc2c(C(=O)N[C@H]3CC[C@@H]3OC)cnn12` [Compound I-253], less than 0.1 µM. For `CNc1cc(Nc2cccn([C@H]3C[C@H](OC)C3)c2=O)nc2c(C(=O)N[C@H]3CC[C@@H]3OC)cnn12` [Compound I-255], the IC50 was less than 0.1 µM.

Take `CNc1cc(Nc2cccn([C@H]3CCC[C@@H](C#N)C3)c2=O)nc2c(C(=O)N[C@@H]3CC[C@H]3OC)cnn12` [Compound I-258]: the IC50 was less than 0.1 µM. For `CNc1cc(Nc2cccn([C@@H]3CCC[C@H](C#N)C3)c2=O)nc2c(C(=O)N[C@@H]3CC[C@H]3OC)cnn12` [Compound I-260], the IC50 is less than 0.1 µM. Molecule `CNc1cc(Nc2cccn([C@H]3[C@@H]4COC[C@@H]43)c2=O)nc2c(C(=O)N[C@@H]3CC[C@H]3OC)cnn12` [Compound I-262] had an IC50 of less than 0.1 µM.

Take `CNc1cc(Nc2cccn(-c3ccccn3)c2=O)nc2c(C(=O)N[C@@H]3CC[C@H]3OC)cnn12` [Compound I-264]: the IC50 was less than 0.1 µM.

The molecule `CNc1cc(Nc2cccn(-c3ncccc3F)c2=O)nc2c(C(=O)NC3CC[C@H]3OC)cnn12` (some centres unmarked) [Compound I-265] gave an IC50 of less than 0.1 µM. The result for `CNc1cc(Nc2cccn(-c3ncccc3F)c2=O)nc2c(C(=O)N[C@@H]3CC[C@H]3OC)cnn12` [Compound I-266] reads less than 0.1 µM. In the case of `CNc1cc(Nc2cccn([C@@H]3C[C@H]3F)c2=O)nc2c(C(=O)NC3CCC3(F)F)cnn12` (some centres unmarked) [Compound I-274] it was less than 0.1 µM; in that of `CNc1cc(Nc2cccn([C@@H]3C[C@H]3F)c2=O)nc2c(C(=O)N[C@@H]3CCC3(F)F)cnn12` [Compound I-276], less than 0.1 µM. In the case of `CNc1cc(Nc2cccn([C@H]3C[C@@H]3F)c2=O)nc2c(C(=O)NC3CCC3(F)F)cnn12` (some centres unmarked) [Compound I-277] it was less than 0.1 µM; in that of `CNc1cc(Nc2cccn([C@H]3C[C@@H]3F)c2=O)nc2c(C(=O)N[C@@H]3CCC3(F)F)cnn12` [Compound I-279], less than 0.1 µM. The molecule `CNc1cc(Nc2cccn(C3COC3)c2=O)nc2c(C(=O)NC3CCC3(F)F)cnn12` (centres unmarked) [Compound I-280] registered an IC50 of less than 0.1 µM.

`CNc1cc(Nc2cccn(C3COC3)c2=O)nc2c(C(=O)N[C@@H]3CCC3(F)F)cnn12` [Compound I-282] gave an IC50 of less than 0.1 µM. `CNc1cc(Nc2cccn([C@H]3C[C@H](F)C3)c2=O)nc2c(C(=O)NC3CCC3(F)F)cnn12` (some centres unmarked) [Compound I-283] registered a concentration for half-maximal inhibition (IC50) of less than 0.1 µM. In turn, `CNc1cc(Nc2cccn([C@H]3C[C@H](F)C3)c2=O)nc2c(C(=O)N[C@@H]3CCC3(F)F)cnn12` [Compound I-285] came in with a 50% inhibitory concentration (IC50) of less than 0.1 µM.

Turning to `CNc1cc(Nc2cccn([C@H]3CC[C@H]3O)c2=O)nc2c(C(=O)NC3CCC3(F)F)cnn12` (some centres unmarked) [Compound I-286], the IC50 was less than 0.1 µM. In the case of `CNc1cc(Nc2cccn([C@H]3CC[C@H]3O)c2=O)nc2c(C(=O)N[C@H]3CCC3(F)F)cnn12` [Compound I-287] it was less than 0.1 µM; in that of `CNc1cc(Nc2cccn([C@@H]3CC[C@@H]3O)c2=O)nc2c(C(=O)N[C@H]3CCC3(F)F)cnn12` [Compound I-290], less than 0.1 µM; in that of `CNc1cc(Nc2cccn([C@H]3C[C@H](OC)C3)c2=O)nc2c(C(=O)NC3CCC3(F)F)cnn12` (some centres unmarked) [Compound I-292], less than 0.1 µM. In the case of `CNc1cc(Nc2cccn([C@H]3C[C@H](OC)C3)c2=O)nc2c(C(=O)N[C@H]3CCC3(F)F)cnn12` [Compound I-293] it was less than 0.1 µM.

Consider `CNc1cc(Nc2cccn([C@H]3C[C@@H](OC)C3)c2=O)nc2c(C(=O)NC3CCC3(F)F)cnn12` (some centres unmarked) [Compound I-295], for which the IC50 is less than 0.1 µM. In the case of `CNc1cc(Nc2cccn([C@H]3C[C@@H](OC)C3)c2=O)nc2c(C(=O)N[C@H]3CCC3(F)F)cnn12` [Compound I-296] it was less than 0.1 µM; in that of `CNc1cc(Nc2cccn([C@@H]3CCC[C@@H]3O)c2=O)nc2c(C(=O)NC3CCC3(F)F)cnn12` (some centres unmarked) [Compound I-303], less than 0.1 µM. `CNc1cc(Nc2cccn([C@@H]3CCC[C@@H]3O)c2=O)nc2c(C(=O)N[C@@H]3CCC3(F)F)cnn12` [Compound I-305]: the IC50 was less than 0.1 µM. The result for `CNc1cc(Nc2cccn([C@H]3[C@@H]4COC[C@@H]43)c2=O)nc2c(C(=O)NC3CCC3(F)F)cnn12` (some centres unmarked) [Compound I-306] reads less than 0.1 µM; that for `CNc1cc(Nc2cccn([C@H]3[C@@H]4COC[C@@H]43)c2=O)nc2c(C(=O)N[C@H]3CCC3(F)F)cnn12` [Compound I-307], less than 0.1 µM.

`CNc1cc(Nc2cccn(C3CCOCC3)c2=O)nc2c(C(=O)NC3CCC3(F)F)cnn12` (centres unmarked) [Compound I-309] had an IC50 of less than 0.1 µM. The molecule `CNc1cc(Nc2cccn(C3CCOCC3)c2=O)nc2c(C(=O)N[C@@H]3CCC3(F)F)cnn12` [Compound I-311] yielded an IC50 of less than 0.1 µM. With `CNc1cc(Nc2cccn([C@H]3CCCOC3)c2=O)nc2c(C(=O)NC3CCC3(F)F)cnn12` (some centres unmarked) [Compound I-312], the IC50 is less than 0.1 µM.

With `CNc1cc(Nc2cccn([C@H]3CCCOC3)c2=O)nc2c(C(=O)N[C@@H]3CCC3(F)F)cnn12` [Compound I-314], the IC50 was less than 0.1 µM. As to `CNc1cc(Nc2cccn([C@@H]3CCCOC3)c2=O)nc2c(C(=O)NC3CCC3(F)F)cnn12` (some centres unmarked) [Compound I-315], the IC50 is less than 0.1 µM. The result for `CNc1cc(Nc2cccn([C@@H]3CCCOC3)c2=O)nc2c(C(=O)N[C@@H]3CCC3(F)F)cnn12` [Compound I-317] reads less than 0.1 µM; that for `CNc1cc(Nc2cccn(-c3ccccn3)c2=O)nc2c(C(=O)NC3CCC3(F)F)cnn12` (centres unmarked) [Compound I-318], less than 0.1 µM; that for `CNc1cc(Nc2cccn(-c3ccccn3)c2=O)nc2c(C(=O)N[C@@H]3CCC3(F)F)cnn12` [Compound I-320], less than 0.1 µM.

Turning to `CNc1cc(Nc2cccn(-c3ccc(C)nc3)c2=O)nc2c(C(=O)NC3CCC3(F)F)cnn12` (centres unmarked) [Compound I-324], the IC50 was less than 0.1 µM. The result for `CNc1cc(Nc2cccn(-c3ccc(C)nc3)c2=O)nc2c(C(=O)N[C@H]3CCC3(F)F)cnn12` [Compound I-325] reads less than 0.1 µM. The molecule `CNc1cc(Nc2cccn([C@@H]3CCC[C@H](C#N)C3)c2=O)nc2c(C(=O)NC3CCC3(F)F)cnn12` (some centres unmarked) [Compound I-327] gave a half-inhibitory concentration (IC50) of less than 0.1 µM. In the case of `CNc1cc(Nc2cccn([C@@H]3CCC[C@H](C#N)C3)c2=O)nc2c(C(=O)N[C@H]3CCC3(F)F)cnn12` [Compound I-328] it was less than 0.1 µM; in that of `CNc1cc(Nc2cccn([C@H]3CCC[C@@H](C#N)C3)c2=O)nc2c(C(=O)NC3CCC3(F)F)cnn12` (some centres unmarked) [Compound I-330], less than 0.1 µM. In the case of `CNc1cc(Nc2cccn([C@H]3CCC[C@@H](C#N)C3)c2=O)nc2c(C(=O)N[C@H]3CCC3(F)F)cnn12` [Compound I-331] it was less than 0.1 µM; in that of `CNc1cc(Nc2cccn([C@@H]3CCOC[C@@H]3OC)c2=O)nc2c(C(=O)NC3CCC3(F)F)cnn12` (some centres unmarked) [Compound I-336], less than 0.1 µM. For `CNc1cc(Nc2cccn([C@@H]3CCOC[C@@H]3OC)c2=O)nc2c(C(=O)N[C@@H]3CCC3(F)F)cnn12` [Compound I-338], the IC50 was less than 0.1 µM.

As for `CNc1cc(Nc2cccn(C(C)C)c2=O)nc2c(C(=O)NC3CC[C@]3(C)O)cnn12` (some centres unmarked) [Compound I-339], the IC50 is less than 0.1 µM. The result for `CNc1cc(Nc2cccn(C(C)C)c2=O)nc2c(C(=O)N[C@@H]3CC[C@@]3(C)O)cnn12` [Compound I-341] reads less than 0.1 µM.

`CNc1cc(Nc2cccn(C3CCOCC3)c2=O)nc2c(C(=O)NC3CC[C@]3(C)O)cnn12` (some centres unmarked) [Compound I-348] displayed a 50% inhibitory concentration (IC50) of less than 0.1 µM.

`CNc1cc(Nc2cccn(C3CCOCC3)c2=O)nc2c(C(=O)N[C@H]3CC[C@]3(C)O)cnn12` [Compound I-349] showed an IC50 of less than 0.1 µM. The result for `CNc1cc(Nc2cccn([C@H]3CC[C@@H]3O)c2=O)nc2c(C(=O)N[C@@H]3CC[C@@]3(C)OC)cnn12` [Compound I-377] reads less than 0.1 µM; that for `CNc1cc(Nc2cccn([C@H]3CCC[C@H]3O)c2=O)nc2c(C(=O)NC3CC[C@]3(C)OC)cnn12` (some centres unmarked) [Compound I-390], less than 0.1 µM.
